Data reported in patent publication US7270968B2, “PTH analogs for renal osteodystrophy and related uses” (The General Hospital Corporation, priority 2000, dated 2007).
Like-named read-outs stand apart in the source and are kept apart here.

Assays:
CPTHR [1] = test: Downregulation of CPTHR binding in C59 cells after pretreatment; assay type: cell-based, mouse; settings: for Downregulation of CPTHR binding: exposure 24 hr; for Radioligand binding, % of controls after drug removal: 24 h after removal; for Reduction of specific binding: preincubation 16 h
Protocol: Specific binding, is expressed as mean ± standard deviation of triplicates. * p<0.05, ** P<0.01.
For binding experiments, cells (100,000 cells/ml) were plated in 24-well dishes and cultured at 33° C. for 7 to 14 days. […] Receptor number was ascertained by Scatchard analysis, using [Tyr^34]hPTH-(19-84) or hPTH(1-84) as competing ligand. […] In some experiments, cells were washed with acidic buffer (50 mM glycine, 150 mM NaCl, pH 4.0) to remove residual bound ligand, prior to addition of radioligand.
(1 mM), forskolin (10 μM), insulin (100 ng/mL), IGF-1 ([…]) or dexamethasone (100 nM).

PTH1R = biological target: T1, PTH1R (Homo sapiens, UniProt Q03431); settings: cited from earlier work
T1 sequence (Q03431 27-593): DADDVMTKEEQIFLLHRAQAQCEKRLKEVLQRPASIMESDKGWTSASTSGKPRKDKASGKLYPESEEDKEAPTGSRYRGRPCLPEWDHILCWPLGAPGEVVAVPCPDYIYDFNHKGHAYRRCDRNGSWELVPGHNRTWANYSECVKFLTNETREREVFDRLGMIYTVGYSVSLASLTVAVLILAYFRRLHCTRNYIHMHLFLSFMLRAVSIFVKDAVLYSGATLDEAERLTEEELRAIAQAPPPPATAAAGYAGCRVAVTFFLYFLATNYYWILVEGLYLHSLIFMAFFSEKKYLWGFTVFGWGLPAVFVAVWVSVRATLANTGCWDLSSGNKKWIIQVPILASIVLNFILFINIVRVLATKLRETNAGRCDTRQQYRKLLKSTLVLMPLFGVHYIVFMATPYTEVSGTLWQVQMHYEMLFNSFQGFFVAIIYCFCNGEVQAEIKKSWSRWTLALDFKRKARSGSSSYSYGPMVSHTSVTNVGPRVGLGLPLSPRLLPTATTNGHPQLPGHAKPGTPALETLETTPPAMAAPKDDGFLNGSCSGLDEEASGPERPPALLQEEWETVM

CPTHR [2] = test: Competitive displacement of 125I-[Tyr34]hPTH(19-84) radioligand in C59 (OC59) cells; assay type: binding, mouse; settings: for Binding to the CPTHR: Example 2, either alone or in combination
Protocol: The human PTH peptides shown were tested for their ability to displace the ^125I-[Tyr^34]hPTH(19-84) tracer in C59 cells. Experiments were performed as described in FIG. 1. Results are expressed as the percentage of maximal specific binding observed in the absence of competing ligand and are shown as mean±standard deviation of triplicates in this representative experiment.
OC59 cells were incubated at 15° C. for 4 hr with ^125I[Tyr^34]hPTH(19-84) tracer (150,000 cpn/well) plus the indicated competing human PTH peptides. Results are means of triplicates.
The [Tyr^34]hPTH(19-84) peptide was radioiodinated with Na[^125I](2000 Ci/mmol) by the chloramine-T method and purified by HPLC, as previously described (Inomata, N., et al., Endocrinology 136:4732-4740 (1995)). For binding experiments, cells (100,000 cells/ml) were plated in 24-well dishes and cultured at 33° C. for 7 to 14 days. Confluent monolayers then were washed with 0.5 ml binding buffer [100 mM NaCl, 5 mM KCl, 2 mM CaCl2, 50 mM Tris-HCl (pH 7.8) plus 5% heat-inactivated horse serum] before incubation with ^125I-[Tyr^34]hPTH-(19-84) (100,000-200,000 cpm/well) in 0.5 ml binding buffer for 4 h at 15° C. Receptor number was ascertained by Scatchard analysis, using [Tyr^34]hPTH-(19-84) or hPTH(1-84) as competing ligand. […] In some experiments, cells were washed with acidic buffer (50 mM glycine, 150 mM NaCl, pH 4.0) to remove residual bound ligand, prior to addition of radioligand.

Gs-linked PTH receptors [3] = test: Cyclic AMP accumulation in C cells (OC1, OC14, OC59); assay type: cell-based, mouse; settings: three C cells
Protocol: The buffer then was rapidly aspirated, the plates were frozen in liquid nitrogen, and the frozen cells were subsequently thawed directly into 0.5 ml of 50 mM HCl. Cell-associated cAMP in the acid extracts was measured using an RIΛ kit (NUN Life Science Products, Boston, Mass., U.S.A.). Results were expressed as picomoles of cAMP produced per well over 15 min.

OC14 cells = test: Cell death by trypan blue staining in OC14 cells; assay type: cell-based, mouse
Protocol: OC14 cells were plated, cultured at 33° C. for 3 days and then incubated at 39° C. for 5-7 days before addition of PTH peptides for a further 16 hr, followed by trypan blue staining (see Example 1). A) Human PTH 1-84 dose response, B) Response to hPTH(1-84), 100 nM and hPTH(39-84), 1000 nM, C) Response to [Tyr^34]hPTH(24-84), 100 nM, D) Caspase dependance (“C”=controls) The Caspase-3 inhibitor DEVD (“D”) was added 1 hr prior to addition of 100 nM hPTH(1-84) (“P”). Results are expressed as mean±SD of quadruplicate determinations of the percentage of nonvital trypan blue-stained cells. * p<0.05, ** p<0.01.
Briefly, cells were plated at 50,000 cells/well in 24-well dishes at 33° C. and shifted to nonpermissive conditions (39° C.) after 2 days. Cells were grown at 39° C. for an additional 4-6 days in α-MEM supplemented with 2.5% of FBS and 1% PS and then treated with different hormones for additional 16-18 hr. Non-adherent cells were combined with adherent cells that were released from the cultures with trypsin-EDTA, centrifuged and resuspended in 0.1% trypan blue solution.

Gs-linked PTH receptors [4] = settings: F1 cells and osteoblastic subclones; cited from earlier work

## C=C1/C(=C\C=C2/CCC[C@]3(C)[C@@H]([C@H](C)CCCC(C)(C)O)CC[C@@H]23)C[C@@H](O)C[C@@H]1O [1,25(OH)2D3]
CPTHR [1]; 10 nM
  Downregulation of CPTHR binding: No downregulation

## CCCCCCCCCCCCCC(=O)O[C@@H]1[C@@H](C)[C@@]2(O)[C@@H](C=C(CO)C[C@]3(O)C(=O)C(C)=C[C@@H]23)[C@H]2C(C)(C)[C@]12OC(C)=O [TPA]
CPTHR [1]
  Radioligand binding, % of controls after drug removal: 63%
CPTHR [1]; 10 nM
  Reduction of specific binding: 48±12%

## C[C@H](CCC(=O)O)C[C@H](C)C[C@H](C)C(=O)/C=C(\O)[C@H](C)C[C@H](C)C/C=C/[C@@H](C)[C@@H](O)[C@@H](C)[C@@H](O)C[C@@H]1CC[C@@](C)([C@H]2CC[C@@](C)([C@@H](C)O)O2)O1 [ionomycin]
CPTHR [1]
  Radioligand binding, % of controls after drug removal: 100%
CPTHR [1]; 1 μM
  Reduction of specific binding: 71±3%

## IGF-1: IGF-1
CPTHR [1]
  Downregulation of CPTHR binding: No downregulation

## PTH(53-84): Carboxyl fragment 53-84 of intact PTH (KKEDNVLVESHEKSLGEADKADVNVLTKAKSQ; Parathyroid hormone; UniProt P01270 84-115, looked up, fragment)
PTH1R
  Binding and activation of the PTH1R: neither bind nor activate

## hPTH(1-34): Amino-terminal human PTH fragment 1-34
CPTHR [2]; concentrations up to 1000 nM
  Displacement of the tracer: did not displace the tracer significantly
CPTHR [1]; 1 μM
  Downregulation of CPTHR binding: No downregulation
Gs-linked PTH receptors [3]
  cAMP response: absence of a detectable cAMP response
OC14 cells; concentrations as high as 1000 nM
  Effect on cell death (trypan blue): inactive
Gs-linked PTH receptors [4]
  cAMP response: no detectable cAMP response

## hPTH(20-30): Short synthetic human PTH peptide spanning residues 20-30 (RVEWLRKKLQD; Parathyroid hormone; UniProt P01270 51-61, looked up, fragment)
CPTHR [2]
  Binding to the CPTHR: failed to bind

## hPTH(24-54): Short synthetic human PTH peptide spanning both binding domains 24-27 and 53-54 (LRKKLQDVHNFVALGAPLAPRDAGSQRPRKK; Parathyroid hormone; UniProt P01270 55-85, looked up, fragment)
CPTHR [2]; Example 2, PTH1R-null CPTHR-expressing calvarial-derived clonal cells, read-out: apparent EC50, competition of [Tyr34]125I-hPTH(19-84) tracer
  EC50: 20 µM

## hPTH(39-84): C-terminal human PTH fragment 39-84, purchased from Peninsula (APLAPRDAGSQRPRKKEDNVLVESHEKSLGEADKADVNVLTKAKSQ; Parathyroid hormone; UniProt P01270 70-115, looked up, fragment)
CPTHR [2]; C59 cells, 4 h at 15° C.
  IC50: 0.5 to 0.7 µM
CPTHR [2]; OC cells
  IC50 relative to hPTH(1-84) and hPTH(19-84): roughly 15 fold
CPTHR [1]; 1 μM
  Downregulation of CPTHR binding: No downregulation
OC14 cells; 1000 nM, 16 hr
  Increase in trypan blue-stained cells over basal: 1.5 fold
PTH1R
  Binding and activation of the PTH1R: neither bind nor activate

## hPTH(50-60): Short synthetic human PTH peptide spanning residues 50-60 (RPRKKEDNVLV; Parathyroid hormone; UniProt P01270 81-91, looked up, fragment)
CPTHR [2]
  Binding to the CPTHR: failed to bind

## hPTHrP(1-36): Human PTH-related peptide fragment 1-36
Gs-linked PTH receptors [4]
  cAMP response: no detectable cAMP response

## insulin: insulin
CPTHR [1]; 100 ng/mL
  Downregulation of CPTHR binding: No downregulation
